Assay results taken from ChEMBL document CHEMBL5321219, “Selective degradation of cellular BRD3 and BRD4-L promoted by PROTAC molecules in six cancer cell lines” (Eur J Med Chem, 2023).
Active and inactive are the calls of the source. The rule behind the calls is not given here.

Experiments:
[1] = target: T1, Protein cereblon/Bromodomain-containing protein 4 (Homo sapiens) (UniProt O60885+Q96SW2); assay: PROTAC activity at CRBN/BRD4-S in human HeLa cells assessed as induction of protein degradation at 1 to 300 nM measured after 24 hrs by Western blot analysis; format: cell-based; conditions: dose 1-300 nM
T1 sequence (Q96SW2 whole entry, looked up, other chains not shown): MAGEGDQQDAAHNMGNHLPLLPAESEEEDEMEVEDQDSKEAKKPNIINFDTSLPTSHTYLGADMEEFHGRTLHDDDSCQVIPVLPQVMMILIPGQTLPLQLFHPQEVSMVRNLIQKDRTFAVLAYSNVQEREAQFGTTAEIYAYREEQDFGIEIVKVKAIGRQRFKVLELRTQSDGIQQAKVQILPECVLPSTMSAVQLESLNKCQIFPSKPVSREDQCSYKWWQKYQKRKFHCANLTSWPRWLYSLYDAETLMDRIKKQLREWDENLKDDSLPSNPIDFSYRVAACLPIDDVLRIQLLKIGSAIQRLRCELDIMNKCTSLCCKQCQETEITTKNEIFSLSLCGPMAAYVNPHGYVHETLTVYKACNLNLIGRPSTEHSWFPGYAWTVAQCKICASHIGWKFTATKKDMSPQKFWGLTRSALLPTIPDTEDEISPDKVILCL

[2] = target: T2, Protein cereblon/Bromodomain-containing protein 2 (Homo sapiens) (UniProt P25440+Q96SW2); assay: PROTAC activity at CRBN/BRD2 in human MCF7 cells assessed as induction of protein degradation at 30 nM measured around 24 hrs by Western blot analysis; format: cell-based
T2 sequence (P25440 whole entry, looked up): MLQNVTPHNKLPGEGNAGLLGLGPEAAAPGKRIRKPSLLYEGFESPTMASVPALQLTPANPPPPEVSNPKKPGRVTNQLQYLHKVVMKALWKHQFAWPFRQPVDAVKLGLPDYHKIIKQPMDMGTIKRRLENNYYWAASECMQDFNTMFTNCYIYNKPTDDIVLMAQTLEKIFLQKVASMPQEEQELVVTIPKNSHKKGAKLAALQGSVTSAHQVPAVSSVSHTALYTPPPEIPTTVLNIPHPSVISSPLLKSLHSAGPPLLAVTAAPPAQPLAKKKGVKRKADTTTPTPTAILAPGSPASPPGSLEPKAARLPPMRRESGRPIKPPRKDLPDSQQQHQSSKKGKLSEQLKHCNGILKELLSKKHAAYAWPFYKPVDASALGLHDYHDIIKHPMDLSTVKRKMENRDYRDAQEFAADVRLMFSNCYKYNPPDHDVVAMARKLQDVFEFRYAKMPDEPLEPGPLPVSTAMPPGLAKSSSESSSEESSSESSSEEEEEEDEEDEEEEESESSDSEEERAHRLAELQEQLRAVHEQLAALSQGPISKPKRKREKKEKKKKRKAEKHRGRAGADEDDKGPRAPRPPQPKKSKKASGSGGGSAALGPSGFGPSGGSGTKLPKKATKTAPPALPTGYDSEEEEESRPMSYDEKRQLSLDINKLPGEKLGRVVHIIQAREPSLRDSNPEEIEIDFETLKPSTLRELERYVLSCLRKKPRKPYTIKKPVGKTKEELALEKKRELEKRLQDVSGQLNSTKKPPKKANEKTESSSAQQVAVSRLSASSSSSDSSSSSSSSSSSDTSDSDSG
T2 sequence (Q96SW2 whole entry, looked up): as the sequence (Q96SW2 whole entry, looked up, other chains not shown) above

MM1.S [3] = assay: Induction of cell cycle arrest in human MM1.S cells assessed as accumulation of cells at G1 phase at 1 nM incubated for 24 hrs by flow cytometry analysis (reference value: 56.32%); format: functional
[4] = target: T2, Protein cereblon/Bromodomain-containing protein 2 (Homo sapiens); assay: PROTAC activity at CRBN/BRD2 in human HGC-27 cells assessed as induction of protein degradation at 0.1 to 30 nM measured after 24 hrs by Western blot analysis; format: cell-based; conditions: dose 0.1-30 nM
[5] = target: T1, Protein cereblon/Bromodomain-containing protein 4 (Homo sapiens); assay: PROTAC activity at CRBN/BRD4-L in human A549 cells assessed as induction of protein degradation measured after 24 hrs by Western blot analysis; format: cell-based; conditions: dose 3-1000 nM
MM1.S [6] = assay: Induction of cell cycle arrest in human MM1.S cells assessed as accumulation of cells at G1 phase at 10 nM incubated for 24 hrs by flow cytometry analysis (reference value: 56.32%); format: functional
[7] = target: T1, Protein cereblon/Bromodomain-containing protein 4 (Homo sapiens); assay: PROTAC activity at CRBN/BRD4-L in human HeLa cells assessed as induction of protein degradation measured after 24 hrs by Western blot analysis; format: cell-based; conditions: dose 1-300 nM
MM1.S [8] = assay: Induction of cell cycle arrest in human MM1.S cells assessed as accumulation of cells at G2 phase at 3 nM incubated for 24 hrs by flow cytometry analysis (reference value: 14.68%); format: functional
[9] = target: T1, Protein cereblon/Bromodomain-containing protein 4 (Homo sapiens); assay: PROTAC activity at CRBN/BRD4-S in human A549 cells assessed as induction of protein degradation at 3 to 1000 nM measured after 24 hrs by Western blot analysis; format: cell-based; conditions: dose 3-1000 nM
[10] = target: T1, Protein cereblon/Bromodomain-containing protein 4 (Homo sapiens); assay: PROTAC activity at CRBN/BRD4-L in human MM1.S cells assessed as induction of protein degradation measured after 24 hrs by Western blot analysis; format: cell-based
[11] = target: T1, Protein cereblon/Bromodomain-containing protein 4 (Homo sapiens); assay: PROTAC activity at CRBN/BRD4-L in human U-937 cells assessed as induction of protein degradation by Western blot analysis; format: cell-based
[12] = target: T3, Protein cereblon/Bromodomain-containing protein 3 (Homo sapiens) (UniProt Q15059+Q96SW2); assay: PROTAC activity at CRBN/BRD3 in human HepG2 cells assessed as induction of protein degradation measured after 24 hrs by Western blot analysis; format: cell-based; conditions: dose 10-3000 nM
T3 sequence (Q15059 2-726 limits assumed): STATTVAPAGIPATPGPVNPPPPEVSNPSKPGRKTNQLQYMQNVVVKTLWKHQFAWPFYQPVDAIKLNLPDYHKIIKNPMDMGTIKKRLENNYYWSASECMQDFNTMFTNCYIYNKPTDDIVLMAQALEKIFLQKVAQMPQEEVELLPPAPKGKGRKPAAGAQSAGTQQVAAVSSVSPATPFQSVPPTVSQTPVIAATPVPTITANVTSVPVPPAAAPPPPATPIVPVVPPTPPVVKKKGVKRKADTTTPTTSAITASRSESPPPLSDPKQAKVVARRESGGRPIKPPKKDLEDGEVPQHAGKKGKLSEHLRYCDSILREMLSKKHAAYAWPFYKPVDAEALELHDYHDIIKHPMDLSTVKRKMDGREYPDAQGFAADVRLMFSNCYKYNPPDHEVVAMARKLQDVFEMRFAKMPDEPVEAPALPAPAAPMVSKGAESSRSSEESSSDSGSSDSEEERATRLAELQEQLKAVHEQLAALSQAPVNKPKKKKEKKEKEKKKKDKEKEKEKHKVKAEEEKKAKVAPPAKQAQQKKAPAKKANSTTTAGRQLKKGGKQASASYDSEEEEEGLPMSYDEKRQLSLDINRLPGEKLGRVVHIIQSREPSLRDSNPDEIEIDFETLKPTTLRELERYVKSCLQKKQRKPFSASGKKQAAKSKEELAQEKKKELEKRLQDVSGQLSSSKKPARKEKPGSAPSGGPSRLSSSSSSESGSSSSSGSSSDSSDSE
T3 sequence (Q96SW2 whole entry partner): as the sequence (Q96SW2 whole entry, looked up, other chains not shown) above

MM1.S [13] = assay: Induction of cell cycle arrest in human MM1.S cells assessed as accumulation of cells at S phase at 100 nM incubated for 24 hrs by flow cytometry analysis (reference value: 22.37%); format: functional
MM1.S [14] = assay: Induction of cell cycle arrest in human MM1.S cells assessed as accumulation of cells at G2 phase at 30 nM incubated for 24 hrs by flow cytometry analysis (reference value: 14.68%); format: functional
MM1.S [15] = assay: Induction of cell cycle arrest in human MM1.S cells assessed as accumulation of cells at G2 phase at 100 nM incubated for 24 hrs by flow cytometry analysis (reference value: 14.68%); format: functional
[16] = target: T1, Protein cereblon/Bromodomain-containing protein 4 (Homo sapiens); assay: PROTAC activity at CRBN/BRD4-L in human MM1.S cells assessed as induction of protein degradation at 2 nM measured after 24 hrs by Western blot analysis; format: cell-based
[17] = target: T1, Protein cereblon/Bromodomain-containing protein 4 (Homo sapiens); assay: PROTAC activity at CRBN/BRD4-L in human MV4-11 cells assessed as induction of protein degradation at 0.1 to 30 nM measured after 24 hrs by Western blot analysis; format: cell-based; conditions: dose 0.1-30 nM
MM1.S [18] = assay: Induction of cell cycle arrest in human MM1.S cells assessed as accumulation of cells at G1 phase at 100 nM incubated for 24 hrs by flow cytometry analysis (reference value: 56.32%); format: functional
[19] = target: T1, Protein cereblon/Bromodomain-containing protein 4 (Homo sapiens); assay: PROTAC activity at CRBN/BRD4-L in human MM1.S cells assessed as induction of protein degradation at 30 nM pretreated with 0.2 to 10 uM MG132 for 2 hrs followed by compound addition and measured after 4 hrs by Western blot analysis; format: cell-based
[20] = target: T1, Protein cereblon/Bromodomain-containing protein 4 (Homo sapiens); assay: PROTAC activity at CRBN/BRD4-L in human MM1.S cells assessed as induction of protein degradation at 30 nM by Western blot analysis; format: cell-based; conditions: TDE = time-dependent effect
[21] = target: T1, Protein cereblon/Bromodomain-containing protein 4 (Homo sapiens); assay: PROTAC activity at CRBN/BRD4-L in human MCF7 cells assessed as induction of protein degradation at 30 nM by Western blot analysis; format: cell-based; conditions: time 1-3 hrs, TDE = time-dependent effect
MM1.S [22] = assay: Induction of cell cycle arrest in human MM1.S cells assessed as accumulation of cells at S phase at 10 nM incubated for 24 hrs by flow cytometry analysis (reference value: 22.37%); format: functional
MM1.S [23] = assay: Downregulation of c-Myc protein expression in human MM1.S cells at 0.1 to 30 nM measured after 24 hrs by Western blot analysis; format: functional, cell-based; conditions: dose 0.1-30 nM
MM1.S [24] = assay: Downregulation of p21 protein expression in human MM1.S cells at 0.1 to 30 nM measured after 24 hrs by Western blot analysis; format: functional, cell-based; conditions: dose 0.1-30 nM
[25] = target: T3, Protein cereblon/Bromodomain-containing protein 3 (Homo sapiens); assay: PROTAC activity at CRBN/BRD3 in human MM1.S cells assessed as induction of protein degradation at 30 nM pretreated with (6R)-N-(4-chlorophenyl)-1-methyl-8-(1-methyl-1H-pyrazol-4-yl)-5,6-dihydro-4H-benzo[f][1,2,4]triazolo[4,3-a]azepin-6-amine for 2 hrs followed by compound addition and measured after 4 hrs by Western blot analysis; format: cell-based
[26] = target: T1, Protein cereblon/Bromodomain-containing protein 4 (Homo sapiens); assay: PROTAC activity at CRBN/BRD4-L in human HGC-27 cells assessed as induction of protein degradation measured after 24 hrs by Western blot analysis; format: cell-based; conditions: dose 0.1-30 nM
MM1.S [27] = assay: Downregulation of BRD3 expression in human MM1.S cells by proteomic analysis; format: functional, cell-based
[28] = target: T1, Protein cereblon/Bromodomain-containing protein 4 (Homo sapiens); assay: PROTAC activity at CRBN/BRD4-L in human HGC-27 cells assessed as induction of protein degradation at 30 nM measured after 8 to 24 hrs by Western blot analysis; format: cell-based; conditions: time 8-24 hrs
[29] = target: T3, Protein cereblon/Bromodomain-containing protein 3 (Homo sapiens); assay: PROTAC activity at CRBN/BRD3 in human MV4-11 cells assessed as induction of protein degradation at 0.1 to 10 nM measured after 24 hrs by Western blot analysis; format: cell-based; conditions: dose 0.1-10 nM
[30] = target: T1, Protein cereblon/Bromodomain-containing protein 4 (Homo sapiens); assay: PROTAC activity at CRBN/BRD4-L in human HepG2 cells assessed as induction of protein degradation measured after 24 hrs by Western blot analysis; format: cell-based; conditions: dose 10-3000 nM
[31] = target: T3, Protein cereblon/Bromodomain-containing protein 3 (Homo sapiens); assay: PROTAC activity at CRBN/BRD3 in human MM1.S cells assessed as induction of protein degradation at 30 nM measured after 3 to 6 hrs by Western blot analysis; format: cell-based; conditions: time 3-6 hrs
[32] = target: T1, Protein cereblon/Bromodomain-containing protein 4 (Homo sapiens); assay: PROTAC activity at CRBN/BRD4-S in human HGC-27 cells assessed as induction of protein degradation at 0.1 to 30 nM measured after 24 hrs by Western blot analysis; format: cell-based; conditions: dose 0.1-30 nM
[33] = target: T3, Protein cereblon/Bromodomain-containing protein 3 (Homo sapiens); assay: PROTAC activity at CRBN/BRD3 in human HeLa cells assessed as induction of protein degradation measured after 24 hrs by Western blot analysis; format: cell-based; conditions: dose 1-300 nM
[34] = target: T1, Protein cereblon/Bromodomain-containing protein 4 (Homo sapiens); assay: PROTAC activity at CRBN/BRD4-L in human MCF7 cells assessed as induction of protein degradation measured after 24 hrs by Western blot analysis; format: cell-based; conditions: dose 1-300 nM

Activity [1]: inactive
Activity [2]: Active
Activity [4]: inactive
Activity [5]: Dose-Dependent Effect
Activity [7]: Dose-Dependent Effect
Activity [9]: inactive
Activity [10]: Dose-Dependent Effect
Activity [11]: inactive
Activity [12]: Dose-Dependent Effect
Activity [16]: Active
Activity [17]: Active
Activity [19]: inactive
Activity [20]: Tde
Activity [21]: Tde
Activity [25]: inactive
Activity [26]: Dose-Dependent Effect
Activity [28]: Active
Activity [29]: inactive
Activity [30]: Dose-Dependent Effect
Activity [31]: Active
Activity [32]: inactive
Activity [33]: Dose-Dependent Effect
Activity [34]: Dose-Dependent Effect
SMILES: Cc1nnc2n1-c1ccc(-c3ccc(CNCCCCc4cccc5c4CN(C4CCC(=O)NC4=O)C5=O)cc3)cc1C(Nc1ccc(Cl)cc1)CC2 (centres undefined)
Activity (MM1.S [3]): 58.49%
Activity (MM1.S [6]): 63.9%
Activity (MM1.S [8]): 20.58%
Activity (MM1.S [13]): 13.23%
Activity (MM1.S [14]): 15.18%
Activity (MM1.S [15]): 16.63%
Activity (MM1.S [18]): 65.67%
Activity (MM1.S [22]): 14.97%
Activity (MM1.S [23]): Active
Activity (MM1.S [24]): Active
Activity (MM1.S [27]): Active
